These results are taken from patent US9676757B2, “Heterocyclic compounds as NaV channel inhibitors and uses thereof” (Merck Patent GmbH, priority 2014, dated 2017).

The conditions of experiment [1]: secondary progressive MS patients; over 2 years; p=0.02; cited from earlier work.
The target in the next experiment is Nav1.6 (Homo sapiens, UniProt Q9UQD0). The experiment is described as follows: Nav two-pulse protocol, IonWorks Quattro electrophysiology. It is filed as cell-based. The following applies: -120 mV to 0 mV, compound incubated 300 s. A digest of the protocol:
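Two-pulse protocol on IonWorks Quattro with amphotericin B (200 μg/ml) perforated patch: holding −120 mV, 2.5 s step to 0 mV, 5 ms gap, 20 ms step to 0 mV. Compounds (0.3% DMSO final) incubated 300 s; block taken as Post/Pre peak inward current for each pulse.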
Background: The patch-clamp technique gives a direct electrical read-out from membranes.

Where two headings read alike, the source gives them in different places. Some results are limits rather than exact numbers.

Nav1.6, sequence (Q9UQD0 whole entry): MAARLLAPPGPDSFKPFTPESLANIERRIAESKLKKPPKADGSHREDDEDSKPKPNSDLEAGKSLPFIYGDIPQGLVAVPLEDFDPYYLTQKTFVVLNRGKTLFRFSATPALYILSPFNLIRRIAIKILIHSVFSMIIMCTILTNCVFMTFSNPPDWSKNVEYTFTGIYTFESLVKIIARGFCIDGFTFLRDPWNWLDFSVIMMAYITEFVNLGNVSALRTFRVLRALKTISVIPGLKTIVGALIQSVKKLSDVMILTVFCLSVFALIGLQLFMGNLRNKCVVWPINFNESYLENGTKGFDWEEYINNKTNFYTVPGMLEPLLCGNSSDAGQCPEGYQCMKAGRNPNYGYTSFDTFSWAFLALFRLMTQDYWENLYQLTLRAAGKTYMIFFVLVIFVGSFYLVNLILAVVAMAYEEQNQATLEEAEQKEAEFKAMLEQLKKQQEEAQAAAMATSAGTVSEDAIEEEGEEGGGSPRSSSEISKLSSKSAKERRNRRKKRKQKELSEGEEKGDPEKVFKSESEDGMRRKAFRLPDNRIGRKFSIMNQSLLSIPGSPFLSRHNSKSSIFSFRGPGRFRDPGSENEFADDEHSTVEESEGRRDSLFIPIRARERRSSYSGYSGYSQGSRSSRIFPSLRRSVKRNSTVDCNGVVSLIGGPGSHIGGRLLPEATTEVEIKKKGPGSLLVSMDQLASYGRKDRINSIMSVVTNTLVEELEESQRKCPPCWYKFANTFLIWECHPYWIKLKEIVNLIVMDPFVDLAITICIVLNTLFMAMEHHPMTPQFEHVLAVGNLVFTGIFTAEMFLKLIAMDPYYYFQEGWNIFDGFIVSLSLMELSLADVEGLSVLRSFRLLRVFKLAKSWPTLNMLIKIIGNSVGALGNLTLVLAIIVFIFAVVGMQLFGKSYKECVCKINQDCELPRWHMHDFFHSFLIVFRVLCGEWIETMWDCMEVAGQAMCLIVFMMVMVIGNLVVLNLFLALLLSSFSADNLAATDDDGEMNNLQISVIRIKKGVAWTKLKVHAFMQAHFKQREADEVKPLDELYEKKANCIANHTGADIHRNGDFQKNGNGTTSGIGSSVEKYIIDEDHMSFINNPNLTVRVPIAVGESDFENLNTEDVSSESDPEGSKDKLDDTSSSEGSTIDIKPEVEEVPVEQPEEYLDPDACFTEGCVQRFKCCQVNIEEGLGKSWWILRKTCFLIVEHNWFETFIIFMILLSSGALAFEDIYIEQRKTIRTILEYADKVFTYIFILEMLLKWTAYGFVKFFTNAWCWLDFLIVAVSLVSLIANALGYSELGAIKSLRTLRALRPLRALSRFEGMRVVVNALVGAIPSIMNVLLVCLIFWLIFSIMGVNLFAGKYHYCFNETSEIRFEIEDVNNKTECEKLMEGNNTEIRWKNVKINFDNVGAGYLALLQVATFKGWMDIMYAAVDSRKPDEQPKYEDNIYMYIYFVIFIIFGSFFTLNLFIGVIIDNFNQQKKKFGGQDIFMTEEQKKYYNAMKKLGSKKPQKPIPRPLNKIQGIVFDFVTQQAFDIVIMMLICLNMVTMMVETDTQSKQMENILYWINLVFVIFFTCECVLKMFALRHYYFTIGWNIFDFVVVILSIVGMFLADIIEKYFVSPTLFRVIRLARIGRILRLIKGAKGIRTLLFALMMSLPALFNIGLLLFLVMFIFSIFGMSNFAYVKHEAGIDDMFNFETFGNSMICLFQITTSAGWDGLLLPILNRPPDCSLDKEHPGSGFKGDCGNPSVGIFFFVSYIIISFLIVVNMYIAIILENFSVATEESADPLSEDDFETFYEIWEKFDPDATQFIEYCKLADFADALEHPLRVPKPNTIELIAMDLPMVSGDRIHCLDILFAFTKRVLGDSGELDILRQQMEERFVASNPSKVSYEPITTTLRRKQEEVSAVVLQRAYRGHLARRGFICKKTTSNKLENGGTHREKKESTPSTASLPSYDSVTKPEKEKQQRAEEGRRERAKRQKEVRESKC

Take `Nc1nnc(-c2cccc(Cl)c2Cl)c(N)n1` [Lamotrigine]: the “deterioration of the timed 25-foot walk” value in experiment [1] is “reduced the deterioration of the timed 25-foot walk”.

For `CC(C)COc1cccc(CN2CCC(c3noc(-c4ccc(F)cn4)n3)C2)c1` (stereo not shown) [Compound 59, 5-Fluoro-2-{3-[1-(3-isobutoxy-benzyl)-pyrrolidin-3-yl]-[1,2,4]oxadiazol-5-yl}-pyridine], the IC50 was greater than 20 µM on Nav1.6 (read-out: Nav1.6 Tonic) and greater than 5 µM at Nav1.6 (read-out: Nav1.6 inac). For `O=C(NCc1ccc(F)cc1)C1CCN(Cc2cccc(Oc3ccccc3)c2)C1` (stereo not shown) [Compound 75, 1-(3-Phenoxy-benzyl)-pyrrolidine-3-carboxylic acid 4-fluoro-benzylamide], in that order: 10 to 20 µM and 1 to 5 µM. For `O=C(NCc1ccc(OC(F)(F)F)cc1)C1CCN(Cc2cccc(Oc3ccccc3)c2)C1` (stereo not shown) [Compound 67, 1-(3-Phenoxy-benzyl)-pyrrolidine-3-carboxylic acid 4-trifluoromethoxy-benzylamide] the same measures were 10 to 20 µM and less than 1 µM.
